# Results: patent US7888342B2, “Methods of treating fibromyalgia syndrome, chronic fatigue syndrome and pain” (Cypress Bioscience, Inc., priority 2001, dated 2011)
# Tests used:
# [1] = system: patients with fibromyalgia syndrome (FMS); test: Example 5: multicenter, double-blind, randomized, placebo-controlled monotherapy study of milnacipran for fibromyalgia; format: in vivo, human; conditions: 3-months
# Protocol: This was a multicenter, randomized, double-blind, placebo-controlled three-arm study designed which enrolled 1196 patients who meet the 1990 ACR criteria for fibromyalgia syndrome (history of widespread pain and pain in 11 of 18 tender point sites on digital palpation), as well as the more detailed admission criteria outlined in the protocol. […] All randomized medications (placebo and milnacipran) were administered twice a day (BID). (i) Primary Efficacy Assessments: Patient Global Impression of Change (PGIC) administered to patients at visits […] Tx15/ET; Physical Component summary of SF-36 (SF-36 PCS) administered to patients at visits BL2/Tx0, […]) Secondary Efficacy Assessments: Time weighted average (AUC) of weekly average PED morning recall pain score; PGIC and SF-36 PCS administered to patients at visits Tx3 to Tx15. (iii) Additional Efficacy Measurements: The Fibromyalgia Impact Questionnaire (FIQ) total score and physical function, Beck Depression Inventory (BDI), the MOS-Sleep Index Scale, the Arizona Sexual Experiences Scale (ASEX), Patient pain 24 hour and 7 day recall VAS, the SF-36 individual domains, Patient Global Disease Status, Patient Global Therapeutic Benefit, the Multiple Ability Self-report Questionnaire (MASQ, cognitive function), the Multidimensional Health Assessment Questionnaire (MDHAQ), Multidimensional Fatigue Inventory (MFI), and diary assessments including current pain (morning, random daily, and evening reports); overall pain past week (weekly report), overall fatigue in the last week (weekly report), and the extent that pain kept the patient from caring for themselves (weekly report). The primary efficacy assessment of this study was a composite responder status defined by three domains of interest evaluated at visit Tx15. The domains measured were The primary efficacy parameter for an indication in the treatment of pain of fibromyalgia was the composite responder status based on the morning recall pain as recorded in the PED and patient global as recorded on the PGIC at Visit Tx15. The primary efficacy parameter for an indication in the treatment of FMS was the composite responder status based on two domains of pain and patient global as used above in the primary efficacy parameter for the treatment of the pain of fibromyalgia plus the additional domain of physical function as measured by the SF-36 PCS at Visit Tx15. […] A patient was classified as a responder for the treatment of FMS if he or she satisfied the responder criteria for the treatment of pain of fibromyalgia and the following additional criterion (at visit Tx15): • Improvement on the SF-36 PCS score from baseline by an amount at least equivalent to the minimal clinically important difference, as defined in the Statistical Analysis Plan. Table 1 summarizes 3-month results for the Baseline Observation Carried Forward (BOCF), Last Observation Carried Forward (LOCF) and study completer (OC) populations. LOCF is an analysis in which observations are carried forward to the last time point for patients who dropped out. The LOCF analysis treats the carried-forward data as observed data at the last time point. BOCF is an analysis that requires that the patient remain active in the trial to be evaluated for response. If a patient withdrew from the trial for any reason, they were classified as a non-responder irregardless of their pain and global scores at the time of withdrawal.
# NMDA receptor = conditions: read-out: IC50, NMDA receptor antagonistic properties; cited from earlier work
# [2] = system: patient experiencing fatigue and fibromyalgia; conditions: lofepramine 70 mg bd in combination with L-phenylalanine 500 mg bd; persisted for more than six months; cited from earlier work
smiles,measurement,setting,value
"CCN(CC)C(=O)[C@]1(c2ccccc2)C[C@@H]1CN (racemic) [milnacipran, cis-(±)-2-(aminomethyl)-N,N-diethyl-1-phenyl-cyclopropanecarboxamide]","Composite Pain responder rate, difference from placebo","[1]; BOCF, 100 mg/day (399)",6.35%
same,"Composite Pain responders, number","[1]; BOCF, 100 mg/day (399)",91
same,"Composite Pain responders, percent","[1]; BOCF, 100 mg/day (399)",(22.81%)
same,"Composite Syndrome responder rate, difference from placebo","[1]; BOCF, 100 mg/day (399)",5.81%
same,"Composite Syndrome responders, number","[1]; BOCF, 100 mg/day (399)",58
same,"Composite Syndrome responders, percent","[1]; BOCF, 100 mg/day (399)",(14.54%)
same,"PGIC Component responder rate, difference from placebo","[1]; BOCF, 100 mg/day (399)",8.39%
same,"PGIC Component responders, number","[1]; BOCF, 100 mg/day (399)",125
same,"PGIC Component responders, percent","[1]; BOCF, 100 mg/day (399)",(31.33%)
same,"Pain Component responder rate, difference from placebo","[1]; BOCF, 100 mg/day (399)",5.89%
same,"Pain Component responders, number","[1]; BOCF, 100 mg/day (399)",124
same,"Pain Component responders, percent","[1]; BOCF, 100 mg/day (399)",(31.08%)
same,"SF36 PCS Component responder rate, difference from placebo","[1]; BOCF, 100 mg/day (399)",5.62%
same,"SF36 PCS Component responders, number","[1]; BOCF, 100 mg/day (399)",108
same,"SF36 PCS Component responders, percent","[1]; BOCF, 100 mg/day (399)",(27.07%)
same,"Composite Pain responder rate, difference from placebo","[1]; BOCF, 200 mg/day (396)",8.29%
same,"Composite Pain responders, number","[1]; BOCF, 200 mg/day (396)",98
same,"Composite Pain responders, percent","[1]; BOCF, 200 mg/day (396)",(24.75%)
same,"Composite Syndrome responder rate, difference from placebo","[1]; BOCF, 200 mg/day (396)",5.16%
same,"Composite Syndrome responders, number","[1]; BOCF, 200 mg/day (396)",55
same,"Composite Syndrome responders, percent","[1]; BOCF, 200 mg/day (396)",(13.89%)
same,"PGIC Component responder rate, difference from placebo","[1]; BOCF, 200 mg/day (396)",9.64%
same,"PGIC Component responders, number","[1]; BOCF, 200 mg/day (396)",129
same,"PGIC Component responders, percent","[1]; BOCF, 200 mg/day (396)",(32.58%)
same,"Pain Component responder rate, difference from placebo","[1]; BOCF, 200 mg/day (396)",4.86%
same,"Pain Component responders, number","[1]; BOCF, 200 mg/day (396)",119
same,"Pain Component responders, percent","[1]; BOCF, 200 mg/day (396)",(30.05%)
same,"SF36 PCS Component responder rate, difference from placebo","[1]; BOCF, 200 mg/day (396)",1.02%
same,"SF36 PCS Component responders, number","[1]; BOCF, 200 mg/day (396)",89
same,"SF36 PCS Component responders, percent","[1]; BOCF, 200 mg/day (396)",(22.47%)
same,"Composite Pain responder rate, difference from placebo","[1]; LOCF, 100 mg/day (399)",7.61%
same,"Composite Pain responders, number","[1]; LOCF, 100 mg/day (399)",103
same,"Composite Pain responders, percent","[1]; LOCF, 100 mg/day (399)",(25.81%)
same,"Composite Syndrome responder rate, difference from placebo","[1]; LOCF, 100 mg/day (399)",6.56%
same,"Composite Syndrome responders, number","[1]; LOCF, 100 mg/day (399)",65
same,"Composite Syndrome responders, percent","[1]; LOCF, 100 mg/day (399)",(16.29%)
same,"PGIC Component responder rate, difference from placebo","[1]; LOCF, 100 mg/day (399)",9.65%
same,"PGIC Component responders, number","[1]; LOCF, 100 mg/day (399)",138
same,"PGIC Component responders, percent","[1]; LOCF, 100 mg/day (399)",(34.59%)
same,"Pain Component responder rate, difference from placebo","[1]; LOCF, 100 mg/day (399)",8.66%
same,"Pain Component responders, number","[1]; LOCF, 100 mg/day (399)",149
same,"Pain Component responders, percent","[1]; LOCF, 100 mg/day (399)",(37.34%)
same,"SF36 PCS Component responder rate, difference from placebo","[1]; LOCF, 100 mg/day (399)",6.89%
same,"SF36 PCS Component responders, number","[1]; LOCF, 100 mg/day (399)",129
same,"SF36 PCS Component responders, percent","[1]; LOCF, 100 mg/day (399)",(32.33%)
same,"Composite Pain responder rate, difference from placebo","[1]; LOCF, 200 mg/day (396)",11.35%
same,"Composite Pain responders, number","[1]; LOCF, 200 mg/day (396)",117
same,"Composite Pain responders, percent","[1]; LOCF, 200 mg/day (396)",(29.55%)
same,"Composite Syndrome responder rate, difference from placebo","[1]; LOCF, 200 mg/day (396)",6.68%
same,"Composite Syndrome responders, number","[1]; LOCF, 200 mg/day (396)",65
same,"Composite Syndrome responders, percent","[1]; LOCF, 200 mg/day (396)",(16.41%)
same,"PGIC Component responder rate, difference from placebo","[1]; LOCF, 200 mg/day (396)",13.19%
same,"PGIC Component responders, number","[1]; LOCF, 200 mg/day (396)",151
same,"PGIC Component responders, percent","[1]; LOCF, 200 mg/day (396)",(38.13%)
same,"Pain Component responder rate, difference from placebo","[1]; LOCF, 200 mg/day (396)",11.22%
same,"Pain Component responders, number","[1]; LOCF, 200 mg/day (396)",158
same,"Pain Component responders, percent","[1]; LOCF, 200 mg/day (396)",(39.90%)
same,"SF36 PCS Component responder rate, difference from placebo","[1]; LOCF, 200 mg/day (396)",2.09%
same,"SF36 PCS Component responders, number","[1]; LOCF, 200 mg/day (396)",109
same,"SF36 PCS Component responders, percent","[1]; LOCF, 200 mg/day (396)",(27.53%)
same,"Composite Pain responder rate, difference from placebo","[1]; OC, 100 mg/day",13.37%
same,"Composite Pain responders, percent","[1]; OC, 100 mg/day",(38.56%)
same,"Composite Pain, m/n = # of responders/# of patients included","[1]; OC, 100 mg/day",91/236
same,"Composite Syndrome responder rate, difference from placebo","[1]; OC, 100 mg/day",11.22%
same,"Composite Syndrome responders, percent","[1]; OC, 100 mg/day",(24.58%)
same,"Composite Syndrome, m/n = # of responders/# of patients included","[1]; OC, 100 mg/day",58/236
same,"PGIC Component responder rate, difference from placebo","[1]; OC, 100 mg/day",15.70%
same,"PGIC Component responders, percent","[1]; OC, 100 mg/day",(47.53%)
same,"PGIC Component, m/n = # of responders/# of patients included","[1]; OC, 100 mg/day",125/263
same,"Pain Component responder rate, difference from placebo","[1]; OC, 100 mg/day",13.92%
same,"Pain Component responders, percent","[1]; OC, 100 mg/day",(52.32%)
same,"Pain Component, m/n = # of responders/# of patients included","[1]; OC, 100 mg/day",124/237
same,"SF36 PCS Component responder rate, difference from placebo","[1]; OC, 100 mg/day",11.40%
same,"SF36 PCS Component responders, percent","[1]; OC, 100 mg/day",(41.06%)
same,"SF36 PCS Component, m/n = # of responders/# of patients included","[1]; OC, 100 mg/day",108/263
same,"Composite Pain responder rate, difference from placebo","[1]; OC, 200 mg/day",20.39%
same,"Composite Pain responders, percent","[1]; OC, 200 mg/day",(45.58%)
same,"Composite Pain, m/n = # of responders/# of patients included","[1]; OC, 200 mg/day",98/215
same,"Composite Syndrome responder rate, difference from placebo","[1]; OC, 200 mg/day",12.22%
same,"Composite Syndrome responders, percent","[1]; OC, 200 mg/day",(25.58%)
same,"Composite Syndrome, m/n = # of responders/# of patients included","[1]; OC, 200 mg/day",55/215
same,"PGIC Component responder rate, difference from placebo","[1]; OC, 200 mg/day",18.76%
same,"PGIC Component responders, percent","[1]; OC, 200 mg/day",(50.59%)
same,"PGIC Component, m/n = # of responders/# of patients included","[1]; OC, 200 mg/day",129/255
same,"Pain Component responder rate, difference from placebo","[1]; OC, 200 mg/day",16.44%
same,"Pain Component responders, percent","[1]; OC, 200 mg/day",(54.84%)
same,"Pain Component, m/n = # of responders/# of patients included","[1]; OC, 200 mg/day",119/217
same,"SF36 PCS Component responder rate, difference from placebo","[1]; OC, 200 mg/day",5.24%
same,"SF36 PCS Component responders, percent","[1]; OC, 200 mg/day",(34.90%)
same,"SF36 PCS Component, m/n = # of responders/# of patients included","[1]; OC, 200 mg/day",89/255
same,IC50,NMDA receptor,~6.3 µM
CN(CCCN1c2ccccc2CCc2ccccc21)CC(=O)c1ccc(Cl)cc1 [lofepramine],effect on fatigue and fibromyalgia,[2],considerable improvement in fatigue and fibromyalgia
